Test results reported in patent US8471005B2 (Cephalon, Inc., priority 2008, dated 2013).

Legend:
JAK2 = molecular target: T1, JAK2 (Homo sapiens, UniProt O60674); assay: Recombinant Human JAK2 Kinase Assay (TRF); format: biochemical; conditions: JAK2 Kinase Inhibition; read-out: JAK2 Potency
T1 construct: host or cells: baculovirus expression system
In short: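 Baculovirus-expressed JAK2 (15 ng/ml) phosphorylated a biotinylated 15-mer peptide captured on Neutravidin, in 20 mM HEPES pH 7.2, 0.2 μM ATP, 1 mM MnCl2, 0.1% BSA, 2.5% DMSO final, 20 min at room temperature. Phosphoproduct detected by time-resolved fluorescence with Eu-N1-labelled PY100 antibody.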

ALK = molecular target: T2, ALK (Homo sapiens, UniProt Q9UM73); assay: ALK Kinase Assay (ELISA/TRF, PLC-γ substrate); format: biochemical; conditions: ALK Kinase Inhibition; read-out: ALK Potency
T2 construct: host or cells: baculovirus expression system
T2 sequence (Q9UM73 19-1620): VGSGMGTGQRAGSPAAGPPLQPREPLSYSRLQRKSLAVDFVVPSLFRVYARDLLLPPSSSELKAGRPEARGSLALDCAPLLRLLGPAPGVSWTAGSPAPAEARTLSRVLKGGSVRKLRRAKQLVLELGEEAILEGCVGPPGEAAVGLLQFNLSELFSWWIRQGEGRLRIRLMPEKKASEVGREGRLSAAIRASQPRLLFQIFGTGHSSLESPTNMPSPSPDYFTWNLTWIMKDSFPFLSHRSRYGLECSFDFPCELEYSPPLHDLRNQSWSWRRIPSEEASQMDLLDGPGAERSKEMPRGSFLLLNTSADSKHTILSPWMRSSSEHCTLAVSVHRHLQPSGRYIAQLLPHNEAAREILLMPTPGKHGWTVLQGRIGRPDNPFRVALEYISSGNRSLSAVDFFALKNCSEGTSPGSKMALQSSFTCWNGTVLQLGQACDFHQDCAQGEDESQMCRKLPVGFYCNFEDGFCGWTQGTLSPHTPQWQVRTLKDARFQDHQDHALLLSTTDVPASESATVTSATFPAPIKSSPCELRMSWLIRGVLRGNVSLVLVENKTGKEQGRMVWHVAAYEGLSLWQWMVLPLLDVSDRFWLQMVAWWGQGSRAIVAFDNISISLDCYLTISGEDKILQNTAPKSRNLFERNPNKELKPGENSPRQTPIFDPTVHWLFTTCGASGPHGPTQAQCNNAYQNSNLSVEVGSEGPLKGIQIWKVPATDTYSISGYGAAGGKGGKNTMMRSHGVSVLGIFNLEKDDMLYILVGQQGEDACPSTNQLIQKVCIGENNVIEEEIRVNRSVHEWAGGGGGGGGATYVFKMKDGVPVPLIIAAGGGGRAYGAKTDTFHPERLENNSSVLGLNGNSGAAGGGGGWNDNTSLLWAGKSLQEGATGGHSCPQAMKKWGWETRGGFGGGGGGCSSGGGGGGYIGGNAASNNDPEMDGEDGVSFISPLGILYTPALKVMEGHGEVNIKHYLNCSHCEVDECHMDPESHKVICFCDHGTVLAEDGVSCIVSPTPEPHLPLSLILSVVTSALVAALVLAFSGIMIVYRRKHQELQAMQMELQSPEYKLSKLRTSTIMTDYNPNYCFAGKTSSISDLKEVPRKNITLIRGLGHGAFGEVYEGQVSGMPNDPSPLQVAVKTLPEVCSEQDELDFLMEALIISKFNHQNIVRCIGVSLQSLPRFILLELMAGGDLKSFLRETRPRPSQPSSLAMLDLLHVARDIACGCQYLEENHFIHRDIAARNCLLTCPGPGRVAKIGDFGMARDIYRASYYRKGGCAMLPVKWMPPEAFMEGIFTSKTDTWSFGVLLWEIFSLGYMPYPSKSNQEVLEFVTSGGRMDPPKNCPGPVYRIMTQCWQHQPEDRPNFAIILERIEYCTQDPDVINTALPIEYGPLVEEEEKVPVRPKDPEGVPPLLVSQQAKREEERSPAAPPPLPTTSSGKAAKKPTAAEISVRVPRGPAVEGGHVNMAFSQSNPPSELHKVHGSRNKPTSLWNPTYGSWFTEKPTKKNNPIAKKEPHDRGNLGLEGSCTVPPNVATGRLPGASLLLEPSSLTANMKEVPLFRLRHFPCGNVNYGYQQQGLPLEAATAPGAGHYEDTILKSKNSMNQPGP
In short: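 First, plates are coated with substrate (phospholipase C-γ, 10 μg/mL, TBS). Next, 30 ng/ml ALK initiates phosphorylation for 15 min at 37° C. Then Eu-N1 PT66 antibody is added for detection, and a nonlinear dose-response fit of percent inhibition yields IC50.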

T1 sequence (O60674 whole entry): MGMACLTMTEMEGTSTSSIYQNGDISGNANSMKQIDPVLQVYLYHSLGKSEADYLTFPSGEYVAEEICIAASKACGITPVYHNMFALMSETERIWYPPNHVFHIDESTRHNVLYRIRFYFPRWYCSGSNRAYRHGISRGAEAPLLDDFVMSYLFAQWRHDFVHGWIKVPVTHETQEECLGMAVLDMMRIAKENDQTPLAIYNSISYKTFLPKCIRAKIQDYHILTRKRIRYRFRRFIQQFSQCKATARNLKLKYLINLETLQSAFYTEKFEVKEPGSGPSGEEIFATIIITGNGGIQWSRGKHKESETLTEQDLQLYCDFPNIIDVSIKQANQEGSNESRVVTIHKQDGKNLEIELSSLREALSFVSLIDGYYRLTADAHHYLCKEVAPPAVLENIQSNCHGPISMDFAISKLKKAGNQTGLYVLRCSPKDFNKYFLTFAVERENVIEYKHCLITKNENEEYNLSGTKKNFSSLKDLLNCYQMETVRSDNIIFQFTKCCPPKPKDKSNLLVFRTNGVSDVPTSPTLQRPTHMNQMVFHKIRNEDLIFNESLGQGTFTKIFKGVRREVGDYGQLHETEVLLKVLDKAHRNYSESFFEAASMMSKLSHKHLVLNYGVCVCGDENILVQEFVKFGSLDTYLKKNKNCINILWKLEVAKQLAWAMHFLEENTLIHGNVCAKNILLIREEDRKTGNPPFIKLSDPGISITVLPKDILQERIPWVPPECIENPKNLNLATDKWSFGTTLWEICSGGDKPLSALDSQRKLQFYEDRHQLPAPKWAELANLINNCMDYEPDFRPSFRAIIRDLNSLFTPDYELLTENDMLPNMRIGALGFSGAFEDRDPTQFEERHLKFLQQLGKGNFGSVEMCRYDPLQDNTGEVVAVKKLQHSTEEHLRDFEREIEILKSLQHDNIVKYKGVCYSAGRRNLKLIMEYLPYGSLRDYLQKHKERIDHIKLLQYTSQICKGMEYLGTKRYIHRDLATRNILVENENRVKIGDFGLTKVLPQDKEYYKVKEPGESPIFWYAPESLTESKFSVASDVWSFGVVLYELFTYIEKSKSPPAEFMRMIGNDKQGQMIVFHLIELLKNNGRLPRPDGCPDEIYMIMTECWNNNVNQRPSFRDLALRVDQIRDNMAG

SMILES | IC50 (JAK2) | IC50 (ALK)
COc1ccccc1NCc1ccc2cnc(Nc3ccc(N4CCN(C)CC4)cc3)nn12 [Example 365, {7-[(2-Methoxy-phenylamino)-methyl]-pyrrolo[2,1-f][1,2,4]triazin-2-yl}-[4-(4-methyl-piperazin-1-yl)-phenyl]-amine] | < 100 nM | 1000 to 10000 nM
CNS(=O)(=O)c1cccc(-c2ccc3cnc(Nc4ccc(N5CCN(C)CC5)cc4)nn23)c1 [Example 366, N-Methyl-3-{2-[4-(4-methyl-piperazin-1-yl)-phenylamino]-pyrrolo[2,1-f][1,2,4]triazin-7-yl}-benzenesulfonamide] | < 100 nM | 100 to 1000 nM
CN1CCN(c2ccc(Nc3ncc4ccc(-c5cccc(S(=O)(=O)N6CCCC6)c5)n4n3)cc2)CC1 [Example 367, [4-(4-Methyl-piperazin-1-yl)-phenyl]-{7-[3-(pyrrolidine-1-sulfonyl)-phenyl]-pyrrolo[2,1-f][1,2,4]triazin-2-yl}-amine] | < 100 nM | 100 to 1000 nM
O=S(=O)(NCCO)c1cccc(-c2ccc3cnc(Nc4ccc(N5CCOCC5)cc4)nn23)c1 [Example 368, N-(2-Hydroxy-ethyl)-3-[2-(4-morpholin-4-yl-phenylamino)-pyrrolo[2,1-f][1,2,4]triazin-7-yl]-benzenesulfonamide] | < 100 nM | 100 to 1000 nM
CN1CCN(c2ccc(Nc3ncc4ccc(-c5cccc(S(=O)(=O)NCCO)c5)n4n3)cc2)CC1 [Example 369, N-(2-Hydroxy-ethyl)-3-{2-[4-(4-methyl-piperazin-1-yl)-phenylamino]-pyrrolo[2,1-f][1,2,4]triazin-7-yl}-benzenesulfonamide] | < 100 nM | 100 to 1000 nM
COc1ccccc1-c1ccc2cnc(Nc3ccc(N4CCOCC4)cc3F)nn12 [Example 370, (2-Fluoro-4-morpholin-4-yl-phenyl)-[7-(2-methoxy-phenyl)-pyrrolo[2,1-f][1,2,4]triazin-2-yl]-amine] | < 100 nM | 100 to 1000 nM
CS(=O)(=O)Nc1cccc(-c2ccc3cnc(Nc4ccc(N5CCOCC5)cc4F)nn23)c1 [Example 371, N-{3-[2-(2-Fluoro-4-morpholin-4-yl-phenylamino)-pyrrolo[2,1-f][1,2,4]triazin-7-yl]-phenyl}-methanesulfonamide] | < 100 nM | 1000 to 10000 nM
Fc1cc(N2CCOCC2)ccc1Nc1ncc2ccc(-c3cccnc3)n2n1 [Example 372, (2-Fluoro-4-morpholin-4-yl-phenyl)-(7-pyridin-3-yl-pyrrolo[2,1-f][1,2,4]triazin-2-yl)-amine] | < 100 nM | 100 to 1000 nM
CN1C(=O)Cc2cc(Nc3ncc4ccc(-c5ccc(S(C)(=O)=O)cc5)n4n3)ccc21 [Example 373, 5-[7-(4-Methanesulfonyl-phenyl)-pyrrolo[2,1-f][1,2,4]triazin-2-ylamino]-1-methyl-1,3-dihydro-indol-2-one] | < 100 nM | 1000 to 10000 nM
CN1C(=O)Cc2cc(Nc3ncc4ccc(-c5cccnc5)n4n3)ccc21 [Example 374, 1-Methyl-5-(7-pyridin-3-yl-pyrrolo[2,1-f][1,2,4]triazin-2-ylamino)-1,3-dihydro-indol-2-one] | < 100 nM | 1000 to 10000 nM
CN1C(=O)Cc2cc(Nc3ncc4ccc(-c5ccccc5N(C)S(C)(=O)=O)n4n3)ccc21 [Example 375, N-Methyl-N-{2-[2-(1-methyl-2-oxo-2,3-dihydro-1H-indol-5-ylamino)-pyrrolo[2,1-f][1,2,4]triazin-7-yl]-phenyl}-methanesulfonamide] | < 100 nM | 100 to 1000 nM
COc1ccccc1-c1ccc2cnc(Nc3ccc4c(c3)C(=O)CC3(CCN(C)CC3)O4)nn12 [Example 376] | < 100 nM | 100 to 1000 nM
CN1CCC2(CCc3cc(Nc4ncc5ccc(-c6cccc(NS(C)(=O)=O)c6)n5n4)ccc3O2)CC1 [Example 378] | < 100 nM | < 100 nM
